The subject of assay [1] is IgM among the anti-HPV antibodies. In words: Detection Example 2: ELISA detection of immunoglobulin M (IgM) in patient serum on immobilized peptide. As to conditions: ELISA with HRP-labeled human IgM antibody; Fig. 5. It is filed as binding. From the text:
In this example, the serum obtained from a patient infected with HPV B19 was inspected for the presence of an IgM antibody by the ELISA method. The same procedures used in Detection Example 1 were repeated to give an immobilized solid support and to carry out the same assay except that HRP-labeled human IgM antibody was substituted for the HRP-labeled human IgG antibody used in Detection Example 1.
The peptide of Formula (1) was used in this determination. In addition, the peptides of Formulae (2) and (3) were also used as comparative peptides. The results thus obtained are plotted on Fig. 5.

For assay [2], the system named is anti-HPV B19 antibodies. In words: Secondary screening: reactivity of free synthetic peptides with anti-HPV B19 antibodies. Particulars: for Reactivity with Anti-HPV B19 Antibodies: free peptides, symbols ⓞ, X printed without a legend. The format is binding. From the text: A secondary screening would be carried out to make clear the reactivity of a free peptide with the anti-HPV B19 antibodies. In this respect, the synthesis of such a free peptide should be performed while taking, into consideration, the degree of difficulty in synthesizing and purifying the corresponding amino acid sequence. Moreover, the number of amino acid residues in the free peptide should be determined after inquiring into possible structures of each amino acid sequence, i.e., the result of the secondary structure-determination using the computer program.
The foregoing primary screening was performed by preparing peptides each equally having 15 amino acid residues therein, but the secondary screening was carried out while preparing various peptides having variously changed amino acid residue numbers due to the reasons discussed above and the inventors have narrowed down to 6 amino acid sequences listed in the following Table 2.
Finally, 6 kinds of free peptides corresponding to the foregoing 6 amino acid sequences were synthesized and were inspected for the reactivity with the anti-HPV B19 antibodies. […]

Assay [3] concerns anti-HPV B19 antibodies. In words: Detection Example 3: determination of IgG with peptide immobilized through biotin-avidin affinity. The format is binding, human. Particulars: biotinylated peptide on avidin plate, Fig. 6. How it is done:
This Example is given for illustrating a method in which the immobilized solid support is prepared by immobilizing peptide onto the solid support through the use of the biotin-avidin affinity to thus determine the IgG antibody. First of all, a 250 µg/mℓ solution of biotin-N-hydroxysuccinimide ester (NHS-Biotin) was dispensed to wells (100µℓ each) of a microtiter plate of polystyrene carrying, on the surface, amino groups and the reaction was continued at 37 °C for 2 hours. Then the microtiter plate was washed 6 times with a phosphate buffer, a 50µg/mℓ solution of avidin was dispensed to the wells (100µℓ each) and they were reacted at 37 °C for one hour.
The biotinylated peptide used herein was obtained by coupling NHS-Biotin to the N-terminal of the protected peptide prepared in the same manner used in the foregoing Peptide Preparation Example followed by removal of the protective groups and purification carried out according to the same manner used in the foregoing Peptide Preparation Example. The resulting biotinylated peptide was washed 6 times with a phosphate buffer and subjected to blocking and assay according to the same method used in Detection Example 2.
The peptide of Formula (1) was used in this determination. In addition, the peptides of Formulae (2) and (3) were also used as comparative peptides. The results thus obtained are plotted on Fig. 6. […]

The test system of assay [4] is anti-HPV B19 antibody (IgG). In words: Detection Example 1: ELISA detection of immunoglobulin G (IgG) in patient serum on immobilized peptide. It is filed as binding, human. Particulars: Fig. 4. How it is done:
In this example, the serum obtained from a patient infected with HPV B19 was inspected for the presence of an IgG antibody by the ELISA method. A microtiter plate made of polystyrene was used as a solid support. A peptide solution whose peptide concentration was adjusted to 10µg/mℓ with a phosphate buffer was dispensed to the wells (100µℓ each) of the plate and then the peptide was allowed to be immobilized at room temperature overnight to give an immobilized solid support. The immobilized solid support was then treated with blocking agent for inhibiting any non-specific adsorption reaction of unlinked sites present on the solid support with the IgG antibody. […]
The microtiter plate was washed 6 times with a phosphate buffer, then horseradish peroxidase (HRP)-labeled anti-human IgG antibody which was diluted 1000 times with the same buffer was dispensed to the wells (100µℓ each) and they were reacted at 37°C for one hour. […] The colored product was inspected for the presence of HRP through determination of absorbance at a wavelength of 492 nm using a microtiter plate reader.
The peptide of Formula (1) was used in this determination. […] In Fig. 4, the time after onset of illness is plotted as abscissa and the absorbance as ordinate.
(In general: An ELISA detects its analyte on a solid surface through an enzyme-linked reagent.)

Regarding `CC[C@H](C)[C@H](NC(=O)CNC(=O)[C@@H](NC(=O)[C@@H](NC(=O)[C@H](Cc1ccc(O)cc1)NC(=O)[C@H](CCCCN)NC(=O)[C@H](CC(=O)O)NC(=O)[C@@H](NC(=O)[C@H](CC(=O)O)NC(=O)[C@H](Cc1c[nH]c2ccccc12)NC(=O)[C@H](Cc1c[nH]cn1)NC(=O)[C@H](Cc1c[nH]cn1)NC(=O)[C@H](Cc1ccc(O)cc1)NC(=O)[C@@H]1CCCN1C(=O)[C@@H](N)CCC(N)=O)[C@@H](C)O)C(C)C)[C@@H](C)O)C(=O)N[C@@H](CC(N)=O)C(=O)N[C@@H](C)C(=O)N[C@H](C(=O)N[C@@H](CO)C(=O)N[C@@H](Cc1c[nH]cn1)C(=O)NCC(=O)N[C@@H](CCC(N)=O)C(=O)N[C@H](C(=O)N[C@H](C(=O)N[C@@H](Cc1ccc(O)cc1)C(=O)O)[C@@H](C)O)[C@@H](C)O)[C@@H](C)CC` [Formula (1)], the “reactivity with IgM among the anti-HPV antibodies” value in assay [1] is given as “high reactivity”. Moreover, the “reactivity with the anti-HPV B19 antibodies compared with the peptide reported by Sato et al.” value in the assay on anti-HPV B19 antibodies [2] (comparison with peptide VP2 328-344) is on record as “extremely high”. The “Reactivity with Anti-HPV B19 Antibodies” value in the assay with anti-HPV B19 antibodies [2] is “ⓞ”. Further, in the assay on anti-HPV B19 antibodies [3], the “reactivity at the initial stage of the infection (the acute stage)” value is recorded as “strong reactivity” and the “reactivity with the anti-HPV B19 antibodies” value is recorded as “high reactivity”. In addition, the “reactivity with the anti-HPV B19 antibody (IgG)” value in assay [4] (ELISA, absorbance at 492 nm, serum diluted 200 times, peptide 10 µg/ml) is reported as “high reactivity”. Also, the “reactivity at the initial stage of the infection (the acute stage)” value in assay [4] (IgG ELISA, time after onset of illness) is on record as “strong reactivity”.

`CC(C)C[C@H](N)C(=O)N[C@@H](CCCNC(=N)N)C(=O)N1CCC[C@H]1C(=O)NCC(=O)N1CCC[C@H]1C(=O)N[C@H](C(=O)N[C@@H](CO)C(=O)N[C@@H](CCC(N)=O)C(=O)N1CCC[C@H]1C(=O)N[C@@H](Cc1ccc(O)cc1)C(=O)N[C@@H](Cc1c[nH]cn1)C(=O)N[C@@H](Cc1c[nH]cn1)C(=O)N[C@@H](Cc1c[nH]c2ccccc12)C(=O)N[C@@H](CC(=O)O)C(=O)N[C@H](C(=O)N[C@@H](CC(=O)O)C(=O)N[C@@H](CCCCN)C(=O)O)[C@@H](C)O)C(C)C` [Formula (3), H-Leu-Arg-Pro-Gly-Pro-Val-Ser-Gln-Pro-Tyr-His-His-Trp-Asp-Thr-Asp-Lys-OH, reference compound]: the “Reactivity with Anti-HPV B19 Antibodies” value in the assay on anti-HPV B19 antibodies [2] is on record as “○”.
